In patent publication US20080220103A1, “METHOD FOR TREATING/CONTROLLING/KILLING FUNGI AND BACTERIA ON LIVING ANIMALS” (priority 2005, published 2008):
In brackets after ≈: the same amount, converted by molar mass. Where two headings read alike, the source gives them in different places.

Experiments:
T. mentagrophytes = test: MIC, modified CLSI M38A broth dilution; assay type: cell-based, Trichophyton mentagrophytes; conditions: for MIC: Trichophyton mentagrophytes
Method: (§1) Minimum Inhibitory Concentration (MIC): Minimum inhibitory concentrations of synthetic and semisynthetic and natural products against dermatophytes were determined using a modification of the Clinical Laboratory Standards Institute (CLSI, formerly National Committee of Clinical Laboratory Standards, NCCLS) M38A standard method for dermatophytes, while MIC of these agents against Candida species were determined using the CLSI M27-A2 methodology. The method used to determine the MIC against bacteria was based on the CLSI document M7-A7.
(§2) For dermatophytes, serial dilutions of terbinafine, tolnaftate were prepared in a range of 0.004-2 μg/ml, while for miconazole concentrations ranged between 0.015-8 μg/ml. Finally, for essential oils, the concentrations tested were between 0.03-16 μg/ml. The only exception was tea tree oil where dilutions were prepared in a range of 0.0078-4 μg/ml. The MIC was read at 4 days post inoculation and defined as the lowest concentration of an agent to inhibit 80% of fungal growth as compared to the growth control (Table 2).

C. albicans = test: MIC, CLSI M27-A2; assay type: cell-based, Candida albicans
Method: as §1
(§3) The remaining essential oils were prepared in a dilution range of 0.03-16 μg/ml. For Candida the MIC was read at 24 hours and defined as the lowest concentration to inhibit 50% of fungal growth as compared to the growth control (Table 4).

E. floccosum = test: MIC, modified CLSI M38A broth dilution; assay type: cell-based, Epidermophyton floccosum
Method: as §1, §2

S. aureus = test: MIC, CLSI M7-A7, Mueller-Hinton; assay type: cell-based, Staphylococcus aureus
Method: as §1
(§4) For bacterial species, the medium used to evaluate the antibacterial activity of agents and essential oils was Mueller-Hinton (Oxoid Ltd., Basingstoke, Hampshire, England). Serial dilutions of miconazole, terbinafine, and tolnaftate were prepared in a range of 0.125-64 μg/ml and serial dilutions of tea tree oil were prepared in a range of 0.0078-4 μg/ml, while those for the rest of the essential oils were prepared in a range 0.031-16 μg/ml.

S. epidermidis = test: MIC, CLSI M7-A7, Mueller-Hinton; assay type: cell-based; conditions: for MIC: read-out: MIC
Method: as §1, §4

C. parapsilosis = test: MIC, CLSI M27-A2; assay type: cell-based, Candida parapsilosis; conditions: Lodderomyces parapsilosis
Method: as §1, §3

All dermatophytes = test: MIC, modified CLSI M38A, pooled dermatophytes; assay type: cell-based, E. floccosum, T. rubrum, T. mentagrophytes; conditions: n = 18
Method: as §1, §2
(§5) In the following Tables, MIC50 and MIC90 are defined as the minimal concentrations of a compound that can inhibit 50% and 90% of the tested organisms, respectively.

T. rubrum [1] = test: Minimum fungicidal concentration (Canton et al.); assay type: cell-based, Trichophyton rubrum; conditions: for MFC: Trichophyton rubrum
Method: Minimum fungicidal concentration (MFC): The minimum fungicidal concentrations of various agents were determined using the technique described by Canton et al. (Antimicrob Agents Chemother. 2004 8:2477-82). In that method, fungal conidia were collected following growth on potato dextrose agar (PDA) plates and were used to inoculate 96-well plates containing different concentrations of agents. Following incubation at 35° C. for 4 days (for dermatophytes) or 24 hours (for yeast), wells showing no visible growth were cultured to determine the MFC (defined as the lowest concentration of a given agent that kills>99.999% of fungal conidia or spores). The MFC value represents the level of the agent at which spores or conidia were killed.

[2] = test system: All bacteria (Staphylococcus species); test: MIC, CLSI M7-A7, pooled bacteria; assay type: cell-based, S. aureus, S. epidermidis; conditions: n = 12
Method: as §1, §4, §5

T. rubrum [3] = test: MIC, modified CLSI M38A broth dilution; assay type: cell-based, Trichophyton rubrum
Method: as §1, §2

All yeasts = test: MIC, CLSI M27-A2, pooled yeasts; assay type: cell-based, C. albicans, C. parapsilosis; conditions: n = 12
Method: as §1, §3, §5

[4] = Candida albicans, C. albicans, n = 6
[5] = Epidermophyton floccosum, E. floccosum, n = 6
[6] = Staphylococcus aureus, S. aureus
[7] = Staphylococcus epidermidis, S. epidermidis, n = 6
[8] = Trichophyton rubrum, T. rubrum, n = 6

Compound: Clc1ccc(COC(Cn2ccnc2)c2ccc(Cl)cc2Cl)c(Cl)c1 (stereo not drawn) [Miconazole, miconazole]
- MIC Range (T. mentagrophytes; T. mentagrophytes, n = 6): 0.015 to 0.25 µg/mL
- MIC (T. mentagrophytes; T. mentagrophytes strain 1720): 0.03 µg/mL (≈ 0.0721 µM)
- MIC (T. mentagrophytes; T. mentagrophytes strain 2124): 0.25 µg/mL (≈ 0.601 µM)
- MIC (T. mentagrophytes; T. mentagrophytes strain 2125): 0.25 µg/mL (≈ 0.601 µM)
- MIC (T. mentagrophytes; T. mentagrophytes strain 2126): 0.015 µg/mL (≈ 0.036 µM)
- MIC (T. mentagrophytes; T. mentagrophytes strain 2127): 0.25 µg/mL (≈ 0.601 µM)
- MIC (T. mentagrophytes; T. mentagrophytes strain 2128): 0.125 µg/mL (≈ 0.3 µM)
- MIC (C. albicans; C. albicans strain 8280 (multi-resistant)): >16 µg/mL
- MIC (C. albicans; Candida albicans, 24 h, C. albicans strain 1740, 50% inhibition, 24 hours, read-out: MIC): 1 µg/mL (≈ 2.4 µM)
- MIC (C. albicans; Candida albicans, C. albicans strain 2108, read-out: MIC): 2 µg/mL (≈ 4.81 µM)
- MIC (C. albicans; Candida albicans, C. albicans strain 2153, read-out: MIC): 1 µg/mL (≈ 2.4 µM)
- MIC (C. albicans; Candida albicans, C. albicans strain 8280 (multi-resistant), read-out: MIC): > 16 µg/mL
- MIC (C. albicans; Candida albicans, C. albicans strain 8283, read-out: MIC): 16 µg/mL (≈ 38.4 µM)
- MIC (C. albicans; Candida albicans, C. albicans strain 8364, read-out: MIC): 2 µg/mL (≈ 4.81 µM)
- MIC (C. albicans; Candida albicans, C. albicans, another isolate, read-out: MIC): 16 µg/mL (≈ 38.4 µM)
- MIC (C. albicans; Candida albicans, C. albicans, four isolates, read-out: MIC): 1 to 2 µg/mL (≈ 2.4 to 4.81 µM)
- MIC50 (C. albicans; [4]): 2 µg/mL (≈ 4.81 µM)
- MIC90 (C. albicans; [4]): 16 µg/mL (≈ 38.4 µM)
- MIC Range (E. floccosum; E. floccosum, n = 6): 0.06 to 0.125 µg/mL
- MIC (E. floccosum; Epidermophyton floccosum, E. floccosum strain 1666): 0.125 µg/mL (≈ 0.3 µM)
- MIC (E. floccosum; Epidermophyton floccosum, E. floccosum strain 1798): 0.125 µg/mL (≈ 0.3 µM)
- MIC (E. floccosum; Epidermophyton floccosum, E. floccosum strain 1925): 0.06 µg/mL (≈ 0.144 µM)
- MIC (E. floccosum; Epidermophyton floccosum, E. floccosum strain 1926): 0.125 µg/mL (≈ 0.3 µM)
- MIC (E. floccosum; Epidermophyton floccosum, E. floccosum strain 1961): 0.125 µg/mL (≈ 0.3 µM)
- MIC (E. floccosum; Epidermophyton floccosum, E. floccosum strain 2165): 0.125 µg/mL (≈ 0.3 µM)
- MIC50 (E. floccosum; [5]): 0.125 µg/mL (≈ 0.3 µM)
- MIC90 (E. floccosum; [5]): 0.125 µg/mL (≈ 0.3 µM)
- MIC (S. aureus; S. aureus strain 733): 2 µg/mL (≈ 4.81 µM)
- MIC (S. aureus; S. aureus strain 734): 2 µg/mL (≈ 4.81 µM)
- MIC (S. aureus; S. aureus strain 8470): 2 µg/mL (≈ 4.81 µM)
- MIC Range (S. aureus; S. aureus, n = 6): 2 µg/mL (≈ 4.81 µM)
- MIC50 (S. aureus; [6]): 2 µg/mL (≈ 4.81 µM)
- MIC90 (S. aureus; [6]): 2 µg/mL (≈ 4.81 µM)
- MIC (S. aureus; Staphylococcus aureus, S. aureus strain 730, 80% inhibition, 16 h, read-out: MIC): 2 µg/mL (≈ 4.81 µM)
- MIC (S. aureus; Staphylococcus aureus, S. aureus strain 732, read-out: MIC): 2 µg/mL (≈ 4.81 µM)
- MIC Range (S. epidermidis; S. epidermidis, n = 6): 0.5 to 1 µg/mL
- MIC (S. epidermidis; Staphylococcus epidermidis, S. epidermidis strain 8472): 0.5 µg/mL (≈ 1.2 µM)
- MIC (S. epidermidis; Staphylococcus epidermidis, S. epidermidis strain 8473): 1 µg/mL (≈ 2.4 µM)
- MIC (S. epidermidis; Staphylococcus epidermidis, S. epidermidis strain 8474): 0.5 µg/mL (≈ 1.2 µM)
- MIC (S. epidermidis; Staphylococcus epidermidis, S. epidermidis strain 8475): 1 µg/mL (≈ 2.4 µM)
- MIC (S. epidermidis; Staphylococcus epidermidis, S. epidermidis strain 8476): 1 µg/mL (≈ 2.4 µM)
- MIC (S. epidermidis; Staphylococcus epidermidis, S. epidermidis strain 8477): 1 µg/mL (≈ 2.4 µM)
- MIC50 (S. epidermidis; [7]): 1 µg/mL (≈ 2.4 µM)
- MIC90 (S. epidermidis; [7]): 1 µg/mL (≈ 2.4 µM)
- MIC (C. parapsilosis; C. parapsilosis strain 7629): 4 µg/mL (≈ 9.61 µM)
- MIC (C. parapsilosis; C. parapsilosis strain 7668): 16 µg/mL (≈ 38.4 µM)
- MIC (C. parapsilosis; C. parapsilosis strain 7672): 8 µg/mL (≈ 19.2 µM)
- MIC (C. parapsilosis; C. parapsilosis strain 7995): 4 µg/mL (≈ 9.61 µM)
- MIC (C. parapsilosis; C. parapsilosis strain 8148): > 16 µg/mL
- MIC (C. parapsilosis; C. parapsilosis strain 8442): 4 µg/mL (≈ 9.61 µM)
- MIC50 (C. parapsilosis; C. parapsilosis, n = 6): 4 µg/mL (≈ 9.61 µM)
- MIC90 (C. parapsilosis; C. parapsilosis, n = 6): 16 µg/mL (≈ 38.4 µM)
- MIC50 (All dermatophytes): 0.125 µg/mL (≈ 0.3 µM)
- MIC90 (All dermatophytes): 0.25 µg/mL (≈ 0.601 µM)
- MIC Range (All dermatophytes): 0.015 to 0.25 µg/mL
- MFC range (row MIC Range) (T. rubrum [1]; T. rubrum, n = 6): 1 to 8 µg/mL
- MFC (T. rubrum [1]; T. rubrum strain 1967, read-out: MFC): 8 µg/mL (≈ 19.2 µM)
- MFC (T. rubrum [1]; T. rubrum strain 2098, read-out: MFC): 4 µg/mL (≈ 9.61 µM)
- MFC (T. rubrum [1]; T. rubrum strain 2246, read-out: MFC): 1 µg/mL (≈ 2.4 µM)
- MFC (T. rubrum [1]; T. rubrum strain 8063, read-out: MFC): 8 µg/mL (≈ 19.2 µM)
- MFC (T. rubrum [1]; T. rubrum strain 8071, read-out: MFC): 8 µg/mL (≈ 19.2 µM)
- MFC (T. rubrum [1]; T. rubrum strain 8092, read-out: MFC): 8 µg/mL (≈ 19.2 µM)
- MFC (T. rubrum [1]; T. rubrum, n = 6, read-out: MFC, row MIC50): 8 µg/mL (≈ 19.2 µM)
- MFC (T. rubrum [1]; T. rubrum, n = 6, read-out: MFC, row MIC90): 8 µg/mL (≈ 19.2 µM)
- MIC50 ([2]; Staphylococcus): 1 µg/mL (≈ 2.4 µM)
- MIC90 ([2]; Staphylococcus): 2 µg/mL (≈ 4.81 µM)
- MIC Range [2]: 0.5 to 2 µg/mL
- MIC Range (T. rubrum [3]; T. rubrum, n = 6): 0.125 to 0.25 µg/mL
- MIC (T. rubrum [3]; Trichophyton rubrum, T. rubrum strain 1967): 0.125 µg/mL (≈ 0.3 µM)
- MIC (T. rubrum [3]; Trichophyton rubrum, T. rubrum strain 2098): 0.125 µg/mL (≈ 0.3 µM)
- MIC (T. rubrum [3]; Trichophyton rubrum, T. rubrum strain 2246): 0.125 µg/mL (≈ 0.3 µM)
- MIC (T. rubrum [3]; Trichophyton rubrum, T. rubrum strain 8063): 0.125 µg/mL (≈ 0.3 µM)
- MIC (T. rubrum [3]; Trichophyton rubrum, T. rubrum strain 8071): 0.25 µg/mL (≈ 0.601 µM)
- MIC (T. rubrum [3]; Trichophyton rubrum, T. rubrum strain 8092): 0.25 µg/mL (≈ 0.601 µM)
- MIC50 (T. rubrum [3]; [8]): 0.125 µg/mL (≈ 0.3 µM)
- MIC90 (T. rubrum [3]; [8]): 0.25 µg/mL (≈ 0.601 µM)
- MIC50 (All yeasts): 4 µg/mL (≈ 9.61 µM)
- MIC90 (All yeasts): > 16 µg/mL
